Reference: PubChem BioAssay (NCI)
Several values for one entry are separate records, joined by “and”; a condition that tells them apart may be missing. Equal values may be shown once.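 1) Cells in 96-well plates. 2) Compound, 48 h, 5 concentrations. 3) Linear interpolation between surrounding doses. 4) Unreached endpoint = highest concentration. At the GI50, growth is halved. TGI: total growth inhibition.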

Columns and labels:
Assay in all cases: growth of human tumour cells (NCI), 48 h
HCC-2998 colon = system: HCC-2998 colon
MALME-3M melanoma = system: MALME-3M melanoma
NCI/ADR-RES ovarian = system: NCI/ADR-RES ovarian
OVCAR-5 ovarian = system: OVCAR-5 ovarian
OVCAR-8 ovarian = system: OVCAR-8 ovarian
SF-268 CNS = system: SF-268 CNS
SK-MEL-28 melanoma = system: SK-MEL-28 melanoma
SNB-19 CNS = system: SNB-19 CNS

SMILES	GI50 (HCC-2998 colon)	TGI (HCC-2998 colon)	GI50 (MALME-3M melanoma)	TGI (MALME-3M melanoma)	GI50 (NCI/ADR-RES ovarian)	TGI (NCI/ADR-RES ovarian)	GI50 (OVCAR-5 ovarian)	TGI (OVCAR-5 ovarian)	GI50 (OVCAR-8 ovarian)	TGI (OVCAR-8 ovarian)	GI50 (SF-268 CNS)	TGI (SF-268 CNS)	GI50 (SK-MEL-28 melanoma)	TGI (SK-MEL-28 melanoma)	GI50 (SNB-19 CNS)	TGI (SNB-19 CNS)
NC(=O)c1cccc2c(N[C@H](CN3CCC3)c3ccc(Cl)c(C(F)(F)F)c3)ncnc12	1.17 µM	2.88 µM	0.399 µM	1.85 µM	2.52 µM	14.4 µM	1.77 µM	13.5 µM	4.55 µM	19.2 µM	1.09 µM	12.9 µM	1.18 µM	4.13 µM	1.19 µM	11.4 µM
N#Cc1c(NCc2ccccc2)nc(NCc2ccccc2)c(C#N)c1-c1ccc(Cl)cc1	> 100 µM	> 100 µM	> 100 µM	> 100 µM	> 50 µM and 96.6 µM	> 100 µM	> 50 µM and 77.3 µM	> 100 µM	> 50 µM and 45.7 µM	> 100 µM	> 50 µM and 25.4 µM	> 50 µM and 80 µM	> 50 µM and 59 µM	> 100 µM	> 50 µM and 40.9 µM	> 100 µM
Cc1ccc(F)c(NC(=O)Nc2ccc(-c3cccc4[nH]nc(N)c34)cc2)c1	2.52 µM and 2.79 µM	6.67 µM and 7.81 µM	4.24 µM and 2.64 µM	16.4 µM and 7.36 µM	3.4 µM and 3.81 µM	18.6 µM and > 10 µM	2.74 µM and 3.42 µM	9.11 µM and > 10 µM	3.25 µM and 3.08 µM	18 µM and > 10 µM	2.92 µM and 3.25 µM	11.2 µM and > 10 µM	3.94 µM and 3.85 µM	18.7 µM and > 10 µM	3.79 µM and 3.96 µM	15.8 µM and > 10 µM
CC1CCCC(C(=O)CC2CC(=O)NC(=O)C2)C1=O (stereo not given)		> 100 µM		> 100 µM		> 100 µM		> 100 µM		> 100 µM		> 100 µM		> 100 µM		> 100 µM
COC1=CC(c2ccc[nH]2)=N/C1=C\c1[nH]c(C)c(C(=O)CCC(=O)Oc2ccc3c(c2)CCC2C3CC[C@]3(C)[C@@H](O)CC[C@@H]23)c1C (stereo not given in full)	4.05 µM	> 100 µM			4.58 µM	> 100 µM	5.47 µM	> 100 µM	3.94 µM	> 100 µM	2.91 µM	> 100 µM	5.64 µM	> 100 µM	4.13 µM	72.6 µM
O=C(c1ccccc1)C(Cl)C(Cl)c1ccccc1 (stereo not given)	2 µM	3.56 µM			2.44 µM	7.35 µM	5.48 µM	20.9 µM	3.06 µM	10.1 µM	4.71 µM	17.3 µM	2.47 µM	6.46 µM	6.85 µM	21.2 µM
COC(=O)C12CCC(C)(C)CC1C1=CCC3C4(C)CC(O)C(O)C(C)(C(=O)OC)C4CCC3(C)C1(CO)CC2 (stereo not given)		27.2 µM				29.2 µM		31.8 µM		31.5 µM		44.9 µM				37 µM
CCCCCCCCCCCCCC[n+]1ccccc1	0.877 µM	2.31 µM	0.401 µM	1.59 µM	8.65 µM	46.8 µM	0.733 µM	2.35 µM					1.31 µM	3.03 µM		
